Reference: EP4707284A1, “HETEROCYCLIC COMPOUND AND USE THEREOF” (Otsuka Pharmaceutical Co., Ltd., priority 2023, dated 2024)

experiment: not given; format: physicochemical; conditions: Tris-hydrochloric acid buffer (pH 7.5) 50 mmol/L, magnesium chloride 5 mmol/L, evaluation compound 1 µmol/L, 37°C, 60 minutes, average of duplicate
How it was run: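 Conversion of compounds to brexpiprazole measured in buffer at 37°C, in duplicate: compound added after 3 min pre-incubation of reaction solution, and reaction stopped at 0 or 60 min with acetonitrile/isopropanol (4:1) containing internal standards. Quantified against calibration samples at 0.01, 0.1 and 1 µmol/L.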

| SMILES | Concentration of brexpiprazole formed | Concentration of evaluation compound decreased |
| --- | --- | --- |
| O=c1ccc2ccc(OCCCC[N+]3(COP(=O)([O-])OCCCCBr)CCN(c4cccc5sccc45)CC3)cc2[nH]1 [EX 62] | 0 nM | 180 nM |
| CCOCCOCCOCCOC(=O)OCOP(=O)([O-])OC[N+]1(CCCCOc2ccc3ccc(=O)[nH]c3c2)CCN(c2cccc3sccc23)CC1 [EX 136] | 0 nM | 0 nM |
| CC(C)(C)C(=O)OP(=O)([O-])OC[N+]1(CCCCOc2ccc3ccc(=O)[nH]c3c2)CCN(c2cccc3sccc23)CC1 [EX 150] | 0 nM | 110 nM |
| O=C(OCOP(=O)([O-])OC[N+]1(CCCCOc2ccc3ccc(=O)[nH]c3c2)CCN(c2cccc3sccc23)CC1)C1CCOCC1 [EX 127] | 0 nM | 40 nM |
| CC(=O)Oc1ccccc1C(=O)OCOP(=O)([O-])OC[N+]1(CCCCOc2ccc3ccc(=O)[nH]c3c2)CCN(c2cccc3sccc23)CC1 [EX 80] | 0 nM | 170 nM |
| COc1ccc(COC(=O)CC(C)(C)CC(=O)OCOP(=O)([O-])OC[N+]2(CCCCOc3ccc4ccc(=O)[nH]c4c3)CCN(c3cccc4sccc34)CC2)cc1 [EX 72] | 0 nM | 150 nM |
| O=c1ccc2ccc(OCCCC[N+]3(COP(=O)([O-])OC/C=C\CO)CCN(c4cccc5sccc45)CC3)cc2[nH]1 [EX 43] | 0 nM | 120 nM |
| C[C@H](NP(=O)([O-])OC[N+]1(CCCCOc2ccc3ccc(=O)[nH]c3c2)CCN(c2cccc3sccc23)CC1)C(=O)OC(C)(C)C [EX 157] | 0 nM | 80 nM |
| C[C@@H]1CN(CCOP(=O)([O-])OC[N+]2(CCCCOc3ccc4ccc(=O)[nH]c4c3)CCN(c3cccc4sccc34)CC2)C[C@H](C)O1 [EX 116] | 0 nM | 90 nM |
| CC(C)(C)OC(=O)NC(C)(C)C(=O)OCOP(=O)([O-])OC[N+]1(CCCCOc2ccc3ccc(=O)[nH]c3c2)CCN(c2cccc3sccc23)CC1 [EX 128] | 0 nM | -30 nM |
| O=c1ccc2ccc(OCCCC[N+]3(COP(=O)([O-])OCCCCCCO)CCN(c4cccc5sccc45)CC3)cc2[nH]1 [EX 44] | 0 nM | -50 nM |
| COCCOCCOC(=O)OCOP(=O)([O-])OC[N+]1(CCCCOc2ccc3ccc(=O)[nH]c3c2)CCN(c2cccc3sccc23)CC1 [EX 34] | 0 nM | 10 nM |
| CCC(C)(C)C(=O)OCOP(=O)([O-])OC[N+]1(CCCCOc2ccc3ccc(=O)[nH]c3c2)CCN(c2cccc3sccc23)CC1 [EX 122] | 0 nM | 50 nM |
| CCC(=O)OC[N+]1(CCCCOc2ccc3ccc(=O)[nH]c3c2)CCN(c2cccc3sccc23)CC1.[I-] [REX 5, 4-(Benzo[b]thiophen-4-yl)-1-(4-((2-oxo-1,2-dihydroquinolin-7-yl)oxy)butyl)-1-((propionyloxy)methyl)piperazin-1-ium iodide, reference compound] | 260 nM | 200 nM |
| CCOC(=O)C(CC)OP(=O)([O-])OC[N+]1(CCCCOc2ccc3ccc(=O)[nH]c3c2)CCN(c2cccc3sccc23)CC1 (stereo not drawn) [EX 110] | 0 nM | 70 nM |
| C[C@@H](OP(=O)([O-])OC[N+]1(CCCCOc2ccc3ccc(=O)[nH]c3c2)CCN(c2cccc3sccc23)CC1)C(=O)OC(C)(C)C [EX 106] | 0 nM | 70 nM |
| CCOC(=O)OCOP(=O)([O-])OC[N+]1(CCCCOc2ccc3ccc(=O)[nH]c3c2)CCN(c2cccc3sccc23)CC1 [EX 129] | 0 nM | 90 nM |
| CC(C)(C)OC(=O)CNP(=O)([O-])OC[N+]1(CCCCOc2ccc3ccc(=O)[nH]c3c2)CCN(c2cccc3sccc23)CC1 [EX 155] | 0 nM | 160 nM |

| SMILES | Concentration of brexpiprazole formed | Concentration of evaluation compound decreased |
| --- | --- | --- |
| O=C(OCCCOC1CCCCO1)OCOP(=O)([O-])OC[N+]1(CCCCOc2ccc3ccc(=O)[nH]c3c2)CCN(c2cccc3sccc23)CC1 (stereo not drawn) [EX 140] | 0 nM | -20 nM |
| O=C(OCCCN1CCOCC1)OCOP(=O)([O-])OC[N+]1(CCCCOc2ccc3ccc(=O)[nH]c3c2)CCN(c2cccc3sccc23)CC1 [EX 146] | 0 nM | 110 nM |
| COCCCOP(=O)([O-])OC[N+]1(CCCCOc2ccc3ccc(=O)[nH]c3c2)CCN(c2cccc3sccc23)CC1 [EX 49] | 0 nM | 50 nM |
| O=C(OCOP(=O)([O-])OC[N+]1(CCCCOc2ccc3ccc(=O)[nH]c3c2)CCN(c2cccc3sccc23)CC1)OC1CCOCC1 [EX 141] | 0 nM | 20 nM |
| O=c1ccc2ccc(OCCCC[N+]3(COP(=O)([O-])OCCCCCCCO)CCN(c4cccc5sccc45)CC3)cc2[nH]1 [EX 45] | 0 nM | 70 nM |
| O=c1ccc2ccc(OCCCC[N+]3(COP(=O)([O-])OCC4CC4)CCN(c4cccc5sccc45)CC3)cc2[nH]1 [EX 91] | 0 nM | 120 nM |
| O=c1ccc2ccc(OCCCC[N+]3(COP(=O)([O-])OCCN4CCC(F)(F)CC4)CCN(c4cccc5sccc45)CC3)cc2[nH]1 [EX 119] | 0 nM | 140 nM |
| O=C(OCCCCCCOP(=O)([O-])OC[N+]1(CCCCOc2ccc3ccc(=O)[nH]c3c2)CCN(c2cccc3sccc23)CC1)c1ccc([N+](=O)[O-])cc1 [EX 85] | 0 nM | 40 nM |
| CC(C)(C)OC(=O)CCCC(=O)OCOP(=O)([O-])OC[N+]1(CCCCOc2ccc3ccc(=O)[nH]c3c2)CCN(c2cccc3sccc23)CC1 [EX 69] | 0 nM | -10 nM |
| O=C(CCO)OCOP(=O)([O-])OC[N+]1(CCCCOc2ccc3ccc(=O)[nH]c3c2)CCN(c2cccc3sccc23)CC1 [EX 125] | 0 nM | 130 nM |
| O=c1ccc2ccc(OCCCC[N+]3(COP(=O)([O-])OCCCCO)CCN(c4cccc5sccc45)CC3)cc2[nH]1 [EX 10, (4-(benzo[b]thiophen-4-yl)-1-(4-((2-oxo-1,2-dihydroquinolin-7-yl)oxy)butyl)piperazin-1-ium-1-yl)methyl (4-hydroxybutyl) phosphate] | 0 nM | -20 nM |
| CC(C)(CC(=O)O)CC(=O)OCOP(=O)([O-])OC[N+]1(CCCCOc2ccc3ccc(=O)[nH]c3c2)CCN(c2cccc3sccc23)CC1 [EX 71] | 0 nM | 100 nM |
| CCOCCOCCOP(=O)([O-])OC[N+]1(CCCCOc2ccc3ccc(=O)[nH]c3c2)CCN(c2cccc3sccc23)CC1 [EX 98] | 0 nM | -20 nM |
| CC(C)(O)CCOP(=O)([O-])OC[N+]1(CCCCOc2ccc3ccc(=O)[nH]c3c2)CCN(c2cccc3sccc23)CC1 [EX 41] | 0 nM | 70 nM |
| CC(C)(C)C(=O)OCOP(=O)([O-])OC[N+]1(CCCCOc2ccc3ccc(=O)[nH]c3c2)CCN(c2cccc3sccc23)CC1 [EX 25] | 0 nM | -10 nM |
| CC(C)C(=O)OCOP(=O)([O-])OC[N+]1(CCCCOc2ccc3ccc(=O)[nH]c3c2)CCN(c2cccc3sccc23)CC1 [EX 24] | 0 nM | -110 nM |
| CCOCCOP(=O)([O-])OC[N+]1(CCCCOc2ccc3ccc(=O)[nH]c3c2)CCN(c2cccc3sccc23)CC1 [EX 94] | 0 nM | -70 nM |

same assay, conditions: Tris-hydrochloric acid buffer (pH 7.5), 37°C, 60 minutes

| SMILES | stability in the buffer / conversion to brexpiprazole (in words) |
| --- | --- |
| CCC(=O)OC[N+]1(CCCCOc2ccc3ccc(=O)[nH]c3c2)CCN(c2cccc3sccc23)CC1.[I-] [REX 5, 4-(Benzo[b]thiophen-4-yl)-1-(4-((2-oxo-1,2-dihydroquinolin-7-yl)oxy)butyl)-1-((propionyloxy)methyl)piperazin-1-ium iodide, reference compound] | clearly degraded to brexpiprazole |

experiment: in vitro; format: cell-based, human; conditions: human; 300 µmol/L, about 24 hours, PMA-differentiated HL-60 cells, LDH activity; no-treatment group 0%, cell lysis buffer-treated group 100%; read-out: cytotoxicity (%) Evaluation compound results
Method: An HL-60 cell line (human acute promyelocytic leukemia cells) was successively cultured in RPMI 1640 containing 20% fetal bovine serum (FBS) at 37°C in 95% atmosphere/5% CO2. Before evaluation, the cells were pre-cultured for about 72 hours in the presence of 10 nM phorbol 12-myristate 13-acetate (PMA) to induce macrophage-like differentiation.
Evaluation compounds were dissolved in DMSO to obtain 30 mmol/L solutions (or suspensions). Each DMSO solution was diluted 100-fold with RPMI 1640 containing 2% FBS (final concentration of the compound: 300 µmol/L) to obtain a treatment solution. The culture supernatant of the differentiated HL-60 cells was removed, and each treatment solution was added and cultured for about 24 hours, followed by cytotoxicity evaluation.
The activity of lactate dehydrogenase (LDH) was measured in the treatment solutions exposed to the cells for about 24 hours by using a commercial kit (Cytotoxicity LDH Assay Kit-WST, Dojindo Laboratories) and a plate reader (Tecan Infinite M1000). The obtained measurement values were used to calculate cytotoxicity (%) as comparison values for each evaluation compound-treated group, with the no-treatment group taken as 0% and the cell lysis buffer-treated group taken as 100%. The test was conducted in triplicate in three wells each, and the average values were used as adopted values.

| SMILES | cytotoxicity at 24 h, 300 µM |
| --- | --- |
| O=c1ccc2ccc(OCCCC[N+]3(COP(=O)([O-])OCCO)CCN(c4cccc5sccc45)CC3)cc2[nH]1 [EX 9, (4-(benzo[b]thiophen-4-yl)-1-(4-((2-oxo-1,2-dihydroquinolin-7-yl)oxy)butyl)piperazin-1-ium-1-yl)methyl (2-hydroxyethyl)phosphate] | -2% |
